Here are results for 47 molecules from publication PMC4850295, “Using a Genetically Encoded Sensor to Identify Inhibitors of Toxoplasma gondii Ca^2+ Signaling” (The Journal of Biological Chemistry, 2016).

In the assay the test system is T1, GCaMP5-expressing T. gondii.
T1 construct: whole extracellular parasites expressing GCaMP5 Ca2+ sensor
On the set-up: species or system GCaMP5-expressing Toxoplasma gondii, extracellular; GCaMP5 fluorescence (cytosolic Ca2+) after 100 uM zaprinast in compound-pretreated extracellular parasites, background-subtracted, relative to zaprinast alone. The conditions noted are these: 100 uM zaprinast stimulation; 10 min pretreatment; mean of two replicates; 0.23 h. In short, it runs like this:
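Extracellular GCaMP5-expressing parasites in Ringer's solution were pretreated with compounds (single 10 μM dose, two biological replicates) for 10 min, then stimulated with 100 μM zaprinast at 37 °C for 4 min. Fluorescence read at 485/525 nm, basal subtracted, expressed as fold change relative to zaprinast-only parasites.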
As to `COc1ccc(NC(=O)c2ccc(-c3cc(-c4nnc(C)o4)ccc3C)cc2)cc1` [GW595885X], the “fold change in fluorescence relative to zaprinast alone” value is reported as 1.221. On to `NS(=O)(=O)c1ccc(N/N=C2\C(=O)Nc3ccc(-c4cnco4)cc32)cc1` [GW276655X], for which the “fold change in fluorescence relative to zaprinast alone” value is on record as 1.083. With `Oc1ccc(-c2nc(-c3ccccc3)[nH]c2-c2ccncc2)cc1` [SB-428218-A], the “fold change in fluorescence relative to zaprinast alone” value came to 1.23. To `Cc1cc(-c2ccco2)cc(C)c1/C=C/c1cncc(-c2nn[nH]n2)c1` [GW458344A] belongs 1.482. Then `CC(C)S(=O)(=O)N1CCN(Cc2ccc3c(c2)nc(NC(=O)c2ccsc2)n3C[C@H](O)c2ccccc2)CC1` [GW635815X], with 1.196; and `CN1CCC(C(=O)Nc2n[nH]c3nnc(-c4ccccc4)cc23)CC1` [SB-678557-A], with 1.083. To `COc1ccc(CNC(=O)NC2CCN(c3ccnc(Nc4ccc(F)cc4)n3)CC2)cc1` [GSK1379788A] belongs 1.01; to `CCS(=O)(=O)c1ccc(OC)c(Nc2ncc(-c3ccc(F)cc3)o2)c1` [GW591947A], 1.203. For the molecule `COc1ccc(C)c(Nc2ccnc(Nc3ccc(-c4cnc[nH]4)cc3)n2)c1` [GW784041A], the “fold change in fluorescence relative to zaprinast alone” value was determined as 1.009. To `Cc1ccc(NC(=O)Nc2cccc(C(F)(F)F)c2)cc1` [GSK955403A] belongs 0.9183. To `Cc1cccc(Nc2ncc(-c3ccccc3)o2)c1` [GW632046X] belongs 1.202. To `COc1cc(Nc2ccnc3cc(-c4ccncc4)ccc23)cc(OC)c1OC` [GW494610A] belongs 0.2498. As to `COc1ccc(COc2ccc(Cc3cnc(N)nc3N)cc2OC)cc1` [GW632580X], the “fold change in fluorescence relative to zaprinast alone” value was 1.155.

For `O=C(NCCNc1ccnc(Nc2ccc(F)cc2)n1)Nc1ccccc1F` [GSK1379880A], the “fold change in fluorescence relative to zaprinast alone” value is 1.302. To `c1ccc(-c2nc3n(c2-c2ccc4c(c2)OCO4)CCC3)nc1` [SB-400868-A] belongs 0.8655; to `COc1cc(C2=NC(c3ccc(Cl)cc3F)C(C(=O)Nc3ccc4[nH]ncc4c3)=C(C)N2)ccn1` (centres unmarked) [GSK534911A], 1.41. Then `Cc1ccc2c(-c3ccnc(Nc4ccc5c(c4)OCCO5)n3)c(-c3ccc(C(F)(F)F)cc3)nn2n1` [GW832467X], with 0.6662; and `c1cc(-c2cnn3nc(N4CCOCC4)ccc23)nc(NC2CC2)n1` [GW708336X], with 0.6756; and `CC(=O)N1CCN(c2ccc(Nc3nccc(-c4sc(C(C)C)nc4-c4cccc(NS(=O)(=O)c5cccc(Cl)c5)c4)n3)cn2)CC1` [GSK1660437A], with 1.275. Then `COc1cc(Nc2nccc(N3CCC(NC(=O)Nc4ccc5c(c4)OCO5)C3)n2)cc(OC)c1OC` (centres unmarked) [GSK1379766A], with 1.478; and `Nc1nccc(-c2c(-c3ccc(F)cc3)ncn2C2CCC(O)CC2)n1` (centres unmarked) [SB-223133], with 0.9972. As to `CCC(CC)(CC)n1cnc2c(N)ncnc21` [SKF-97620], the “fold change in fluorescence relative to zaprinast alone” value was found to be 0.9821.

Regarding `CN(c1ccc2c(c1)nc(NCc1ccc(F)cc1)n2C)c1ccnc(Nc2ccc(CS(C)(=O)=O)cc2)n1` [GW813244A], the “fold change in fluorescence relative to zaprinast alone” value is 1.154.

With `Cc1nc(-c2ccccc2)n2nc(NCCCN3CCOCC3)ncc12` [GW874091X], the “fold change in fluorescence relative to zaprinast alone” value came out at 1.267. Regarding `COc1cc(Nc2ncc3c(C)nc(-c4cccc(C(F)(F)F)c4)n3n2)cc(OC)c1OC` [GW837331X], the “fold change in fluorescence relative to zaprinast alone” value is reported as 0.3788. Take `CNc1nccc(-c2c(-c3ccc(F)cc3)ncn2CCCN2CCOCC2)n1` [SB-222516]: the “fold change in fluorescence relative to zaprinast alone” value turned out to be 0.95. Then `Nc1nccc(C#Cc2cncnc2Nc2ccc(OCc3cccc(F)c3)c(Cl)c2)n1` [GW799251X], with 1.079; and `CC(C)c1ccc(O)cc1Nc1ccnc2ccc(C(F)(F)F)cc12` [GW482059X], with 1.143; and `COc1ccc(C2=C(Nc3cccc(C(=O)O)c3)C(=O)NC2=O)cc1` [SB-390765], with 0.6431. Then `CS(=O)(=O)Nc1ccc(-c2ccnc3[nH]ccc23)cc1` [GSK993273A], with 1.181; and `Nc1nonc1-c1nc2cnccc2n1C1CCCCC1` [SB-734117], with 1.214; and `CN1CCN(Cc2ccc(-c3ccc4c(Nc5ccc(Oc6ccccn6)cc5)ccnc4c3)o2)CC1` [GW567140X], with 1.304. To `NC(=O)c1cccc(Nc2nccc(Nc3ccc(Oc4c(Cl)cccc4Cl)c(Cl)c3)n2)c1` [GW659009A] belongs 1.248; to `CCCN1CCC(c2ccc(Nc3nc(Nc4cc(F)ccc4C(N)=O)c4cc[nH]c4n3)c(OC)c2)CC1` [GSK1326255A], 1.826. In the case of `Cc1c2ccc(N(C)c3ccnc(Nc4cccc(S(N)(=O)=O)c4)n3)cc2nn1Cc1ccccc1` [GW787226A], the “fold change in fluorescence relative to zaprinast alone” value is recorded as 1.348. As for `CCNCC(Cc1ccccc1)NC(=O)c1cc(Br)c(-c2ccnc3[nH]ccc23)s1` (centres unmarked) [GSK1383280A], the “fold change in fluorescence relative to zaprinast alone” value was determined as 0.5995. Then `Nc1ncc(-c2cn[nH]c2)c2scc(-c3ccc4c(c3)CCN4C(=O)Cc3ccccc3)c12` [GSK2593067A], with 1.414. For `CS(=O)(=O)CCNCc1coc(-c2ccc3ncnc(Nc4ccc(OCc5ccccc5)cc4)c3c2)c1` [GW566221B], the “fold change in fluorescence relative to zaprinast alone” value worked out at 0.9966. Take `Fc1ccc(-c2ncn(CCCN3CCOCC3)c2-c2ccncc2)cc1` [SB-210313]: the “fold change in fluorescence relative to zaprinast alone” value amounted to 1.039.

On to `C[C@@H](Oc1cc(-n2cnc3ccc(-c4ccncc4)cc32)sc1C(N)=O)c1ccccc1Cl` [GSK483724A], for which the “fold change in fluorescence relative to zaprinast alone” value was 1.04. For `COc1ccc2cc(-c3c(-c4ccncc4)nc(-c4ccc([S+](C)[O-])cc4)n3C)ccc2c1` (centres unmarked) [SB-437013], the “fold change in fluorescence relative to zaprinast alone” value was 1.038. Then `COc1cc2ncnc(Nc3ccc4c(cnn4Cc4ccccc4)c3)c2cc1OC` [GW282449A], with 1.119; and `COc1cc2ncnc(Nc3ccc(OCc4ccccc4Br)c(Cl)c3)c2cc1OC` [GI261590A], with 1.09; and `Nc1ncc(-c2ccc3nccc(-c4ccncc4)c3c2)cc1S(=O)(=O)N1CCCCC1` [GSK1693850A], with 0.1427.

As for `NCC(C(=O)Nc1cc(Br)c(-c2ccnc3[nH]ccc23)s1)c1ccccc1` (centres unmarked) [GSK1269851A], the “fold change in fluorescence relative to zaprinast alone” value was found to be 0.2436. In the case of `CSc1nccc(-c2c(-c3ccc(F)cc3)ncn2CCCN2CCOCC2)n1` [SB-217146-A], the “fold change in fluorescence relative to zaprinast alone” value came out at 0.6021. Take `O=C(Nc1n[nH]c2nc(-c3ccco3)c(Br)cc12)C1CCN(Cc2ccccc2)C1` (centres unmarked) [SB-742034-AC]: the “fold change in fluorescence relative to zaprinast alone” value was 0.9039.
